From US11225507B2, “Conformation switchable antimicrobial peptides and methods of using the same” (priority 2017, dated 2022)

Tests used:
H. pylori SS1 [1] = experiment: SEM analysis of bacterial morphology; type: cell-based, Helicobacter pylori; conditions: 30 min
Protocol: SEM analysis. SS1 bacterial cells grown in BB with the supplement of 10% FBS under pH 7.4 or 4.0 with or without polypeptides (2.2 μM) treatment were performed using a similar protocol as killing kinetics measurements but with a 30 min incubation time. All the samples were collected into a microfuge tube and pelleted at 4000 rpm for 5 min, and then washed twice with phosphate-buffered saline. Subsequently, bacteria were fixed with paraformaldehyde solution (4%) for 1 h before proceeding, followed by washing with DI water. Dehydration was performed with a series of graded ethanol solution (10%, 25%, 50%, 75%, 95%, and 100%). The dehydrated samples were dried under vacuum overnight before being mounted on carbon tape and coated with gold-platinum for imaging using a Hitachi S-4700 High Solution SEM (Japan).

commensal bacteria = experiment: Killing effect against commensal bacteria in vivo (16S rRNA qPCR); conditions: mice, daily gavage for 3 consecutive days
Protocol: The bacterial load was determined by quantitative real-time PCR using a protocol modified from Stefka et al., and Buffie et al. (Stefka et al. (2014) Commensal bacteria protect against food allergen sensitization. Proc Natl Acad Sci USA 111:13145-13150; Buffie et al. (2012) Profound alterations of intestinal microbiota following a single dose of clindamycin results in sustained susceptibility to Clostridium difficile-induced colitis. Infect Immun 80:62-73). Fecal DNA was extracted as for sequencing, and bacterial load was quantified against a standard curve derived from apCR4TOPO-TA vector containing a nearly full-length copy of the 16S rRNA gene from a member of Porphyromonadaceae. Bacterial DNA was amplified with universal primers 8F and 338R using the iQ SYBR greensupermix (Bio-RadLifeScience) and the StepOne Plus system (AppliedBiosystems). The results were normalized to ileal content/fecal weight.

[2] = Circular dichroism (CD) secondary structure of polypeptides at different pH; type: physicochemical
Protocol: The secondary structure of the polypeptides at different pH value was then investigated by circular dichroism (CD). […] Distortion of helical conformation was noted when the pH was adjusted back to neutral (FIG. 1C).
The MALLS detector was calibrated using pure toluene and can be used for the determination of the absolute molecular weights (MWs). The MWs of polymers were determined based on the dn/dc value of each polymer sample calculated offline by using the internal calibration system processed by the ASTRA V software (version 5.1.7.3, Wyatt Technology, Santa Barbara, Calif., USA). Circular dichroism (CD) measurements were carried out on a JASCO J-815 CD spectrometer. The polymer samples were prepared at concentrations of 4.4 μM. The solution was placed in a quartz cell with a path length of 0.10 cm. The zeta-potential of polypeptides was evaluated by Malvern Zetasizer. Infrared spectra were recorded on a Perkin Elmer 100 serial FTIR spectrophotometer calibrated with polystyrene film. Lyophilization was performed on a FreeZonelyophilizer (Labconco, Kansas City, Mo., USA). UV light was generated from an OmiCure S1000 UV lamp (EXFO, Mississauga, Canada).

[3] = Liposome dye leakage assay (ANTS/DPX efflux)
Protocol: Liposome dye leakage assay. ANTS (12.5 mM) and DPX (45 mM) were dissolved in Tris buffer (pH=7.4). To a clean round-bottom flask, appropriate volumes of lipid stocks were added to make up 1 mL of CHCl3 (3:1 POPE (1-palmitoyl-2-oleoyl-sn-glycero-3-phosphoethanolamine)/POPG (1-palmitoyl-2-oleoyl-sn-glycero-3-phospho-(1′-rac-glycerol) (sodium salt)) vesicles, POPE (130 μL, 25 mg/mL CHCl3) and POPG (115 μL, 10 mg/mL CHCl3) were used). The solvent was removed by a stream of nitrogen gas to obtain a thin lipid film, which was then hydrated by 1 mL of ANTS/DPX solution. The mixture was left to hydrate for 1 h, after which it was subjected to 10 freeze-thaw cycles (using dry ice/acetone to freeze and warm water to thaw). The suspension was extruded 20 times through a polycarbonate membrane with 400 nm pore diameter. The excess dye was removed using Sephadex G-50 column as the eluent. The dye-filled vesicle fractions were diluted 200 times with Tris buffer. This suspension (90 μL) was subsequently mixed with polypeptide stock solutions (10 μL) at various pH (pH 7.4 or 4.0) on a 96-well black microplate (Greiner, flat bottom). Tris buffer (10 μL, pH 7.4 or 4.0) and Triton-X (0.1% v/v, 10 μL, pH 7.4 or 4.0) were employed as the negative and positive controls at corresponding pH, respectively. After 30 min, the fluorescence intensity in each well was recorded using the microplate reader with excitation and emission wavelengths of 380 and 520 nm, respectively. The percentage of leaked […] dye in each well was determined as follows: leakage (%)=[(F−F0)/(FTX−F0)]×100%, where F is the fluorescence intensity recorded in the well, F0 is the intensity in the negative control well, and FTX is the intensity in the positive control well.

E. coli MG1655 = experiment: Minimal inhibition concentration (MIC), E. coli MG1655; type: cell-based, Escherichia coli; conditions: pH 7.4
Protocol: Minimal inhibition concentration (MIC). Gram-negative bacteria, DH5α and MG1655 (E. coli) were grown in LB medium at 37° C. For determination of the MIC, polypeptides were dissolved in media using serial dilutions from a stock solution. Into each well of a 96-well plate was added 200 μL of each concentration and 2 μL of bacteria (1×10^8 CFU (colony forming units)) in medium. The plate was incubated at 37° C. The optical density readings of microorganism solutions were measured after 24 h incubation. The MIC was considered as the lowest concentration of peptide where no visual growth of bacteria was detected.

H. pylori SS1 [4] = experiment: Anti-H. pylori efficacy in vivo (infected C57BL/6J mice); design: species or system Helicobacter pylori; conditions: oral gavage once daily for 3 d, 2.6 μmol/kg
Protocol: Anti-H. pylori efficacy in vivo. […] For triple therapy, mice were first administered omeprazole (a proton pump inhibitor) through oral gavage at a dose of 400 μmol/kg, followed by a lag time of 30 min before administration of amoxicillin (68.0 μmol/kg) and clarithromycin (19.1 μmol/kg). PL2 and PDL2 in 5% (vol/vol) DMSO (both at 2.6 μmol/kg) were administered through oral gavage once daily for a consecutive 3 d. Water solution with 5% DMSO was served as negative control group. Forty-eight hours after the last administration, mice were killed and the stomach was removed from the abdominal cavity. The stomach was cut along the greater curvature, and the gastric content was removed and rinsed with PBS. The stomach sections were used for assessment of bacterial colonization. For bacterial colonization, a gastric tissue section was suspended in 1 mL PBS and homogenized for H. pylori recovery. The homogenate was serially diluted and spotted onto Columbia agar plate containing vancomycin (20 μg/mL), amphotericin (2 μg/mL), bacitracin (30 μg/mL) and nalidixic acid (10 μg/mL). The plates were then incubated at 37° C. under microaerobic conditions for 5 d, and bacterial colonies were enumerated and adjusted for dilutions.

**Q.** Which “bacterial membrane/morphology by SEM” value (H. pylori SS1 [1]; pH 4.0, 2.2 μM) does the source give for (PGA)18-r-(PHLG-MHH)20 [PL2] here?
**A.** dramatic damage of the bacterial membranes

**Q.** And the “bacterial membrane/morphology by SEM” value (H. pylori SS1 [1]; pH 7.4, 2.2 μM)?
**A.** minimally affected the bacterial morphology

**Q.** What about the “killing of commensal bacteria in the feces” value (commensal bacteria) of the same substance?
**A.** did not cause undesired killing of the commensal bacteria

**Q.** What about the “killing of commensal bacteria in the ileal contents” value (commensal bacteria) of the same substance?
**A.** did not cause undesired killing of the commensal bacteria

**Q.** And the “secondary structure (CD)” value ([2]; pH≤4.2)?
**A.** typical helical conformation

**Q.** What about the “secondary structure (CD)” value ([2]; pH≥5.1) of the same substance?
**A.** random coiled conformation

**Q.** And the “dye leakage from anionic liposomes” value ([3]; pH 4.0)?
**A.** great dye leakage

**Q.** What about the “dye leakage from anionic liposomes” value ([3]; pH 7.4) of the same substance?
**A.** minimal dye leakage

**Q.** And the “minimal inhibitory concentration (MIC)” value (E. coli MG1655)?
**A.** higher than 70 μM

**Q.** What about the “decrease of bacterial burden in the stomach as compared with the control group” value (H. pylori SS1 [4]) of the same substance?
**A.** ~100 times
